PubChem BioAssay (NCI)
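Protocol summary: plate cells (96-well), add compound at 5 concentrations, incubate 48 h, interpolate endpoints linearly. At the GI50, growth is halved. At the TGI there is no net growth.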

Tests used:
Experiment in all cases: NCI-60 cell line screen, 48 h
786-0 renal = system: 786-0 renal
A498 renal = system: A498 renal
A549 NSCLC = system: A549 NSCLC
ACHN renal = system: ACHN renal
CAKI-1 renal = system: CAKI-1 renal
CCRF-CEM leukemia = system: CCRF-CEM leukemia
COLO 205 colon = system: COLO 205 colon
DU-145 prostate = system: DU-145 prostate
EKVX NSCLC = system: EKVX NSCLC
HCC-2998 colon = system: HCC-2998 colon
HCT-116 colon = system: HCT-116 colon
HCT-15 colon = system: HCT-15 colon
HL-60(TB) leukemia = system: HL-60(TB) leukemia
HOP-62 NSCLC = system: HOP-62 NSCLC
HOP-92 NSCLC = system: HOP-92 NSCLC
HS 578T breast = system: HS 578T breast
HT29 colon = system: HT29 colon
IGROV1 ovarian = system: IGROV1 ovarian
K-562 leukemia = system: K-562 leukemia
KM12 colon = system: KM12 colon
LOX IMVI melanoma = system: LOX IMVI melanoma
M14 melanoma = system: M14 melanoma
MALME-3M melanoma = system: MALME-3M melanoma
MCF7 breast = system: MCF7 breast
MDA-MB-231 breast = system: MDA-MB-231 breast
MDA-MB-435 = system: MDA-MB-435
MOLT-4 leukemia = system: MOLT-4 leukemia
NCI-H226 lung = system: NCI-H226 lung
NCI-H23 lung = system: NCI-H23 lung
NCI-H460 lung = system: NCI-H460 lung
NCI-H522 lung = system: NCI-H522 lung
NCI/ADR-RES ovarian = system: NCI/ADR-RES ovarian
OVCAR-3 ovarian = system: OVCAR-3 ovarian
OVCAR-4 ovarian = system: OVCAR-4 ovarian
OVCAR-5 ovarian = system: OVCAR-5 ovarian
OVCAR-8 ovarian = system: OVCAR-8 ovarian
PC-3 prostate = system: PC-3 prostate
RPMI-8226 leukemia = system: RPMI-8226 leukemia
RXF 393 renal = system: RXF 393 renal
SF-268 CNS = system: SF-268 CNS
SF-295 CNS = system: SF-295 CNS
SF-539 CNS = system: SF-539 CNS
SK-MEL-2 melanoma = system: SK-MEL-2 melanoma
SK-MEL-28 melanoma = system: SK-MEL-28 melanoma
SK-MEL-5 melanoma = system: SK-MEL-5 melanoma
SN12C renal = system: SN12C renal
SNB-19 CNS = system: SNB-19 CNS
SNB-75 CNS = system: SNB-75 CNS
SR leukemia = system: SR leukemia
SW-620 colon = system: SW-620 colon
T-47D breast = system: T-47D breast
TK-10 renal = system: TK-10 renal
U251 CNS = system: U251 CNS
UACC-257 melanoma = system: UACC-257 melanoma
UACC-62 melanoma = system: UACC-62 melanoma
UO-31 renal = system: UO-31 renal
BT-549 breast = system: BT-549 breast
SK-OV-3 ovarian = system: SK-OV-3 ovarian

COc1cc2c3c(n(CCCn4ccnc4)c(=O)c2cc1OC)-c1cc2c(cc1C3=O)OCO2
GI50 (786-0 renal): < 0.01 µM
TGI (786-0 renal): 0.0917 µM
GI50 (A498 renal): 0.0203 µM
TGI (A498 renal): 0.0878 µM
GI50 (A549 NSCLC): 52.8 nM
TGI (A549 NSCLC): > 100 µM
GI50 (ACHN renal): < 10 nM
TGI (ACHN renal): > 100 µM
GI50 (CAKI-1 renal): < 10 nM
TGI (CAKI-1 renal): 27 nM
GI50 (CCRF-CEM leukemia): < 10 nM
TGI (CCRF-CEM leukemia): < 10 nM
GI50 (COLO 205 colon): 312 nM
TGI (COLO 205 colon): > 100 µM
GI50 (DU-145 prostate): < 10 nM
TGI (DU-145 prostate): > 100000 nM
GI50 (EKVX NSCLC): 1100 nM
TGI (EKVX NSCLC): > 20.9 µM
GI50 (HCC-2998 colon): < 10 nM
TGI (HCC-2998 colon): 34.5 nM
GI50 (HCT-116 colon): < 10 nM
TGI (HCT-116 colon): 148 nM
GI50 (HCT-15 colon): 824 nM
TGI (HCT-15 colon): > 100 µM
GI50 (HL-60(TB) leukemia): < 10 nM
TGI (HL-60(TB) leukemia): < 0.0195 µM
GI50 (HOP-62 NSCLC): < 10 nM
TGI (HOP-62 NSCLC): 153 nM
TGI (HOP-92 NSCLC): > 100 µM
GI50 (HS 578T breast): > 100000 nM
TGI (HS 578T breast): > 100 µM
GI50 (HT29 colon): 94.8 nM
TGI (HT29 colon): > 100 µM
GI50 (IGROV1 ovarian): 959 nM
TGI (IGROV1 ovarian): > 100 µM
GI50 (K-562 leukemia): 12.2 nM
GI50 (KM12 colon): 142 nM
TGI (KM12 colon): 9.32 µM
GI50 (LOX IMVI melanoma): < 10 nM
TGI (LOX IMVI melanoma): 171 nM
GI50 (M14 melanoma): < 10 nM
TGI (M14 melanoma): 100 nM
GI50 (MALME-3M melanoma): 791 nM
TGI (MALME-3M melanoma): > 31.5 µM
GI50 (MCF7 breast): < 12.9 nM
TGI (MCF7 breast): > 100 µM
GI50 (MDA-MB-231 breast): 347 nM
TGI (MDA-MB-231 breast): 3.57 µM
GI50 (MDA-MB-435): 72.8 nM
TGI (MDA-MB-435): 1670 nM
GI50 (MOLT-4 leukemia): < 10 nM
TGI (MOLT-4 leukemia): < 10 nM
GI50 (NCI-H226 lung): < 13.5 nM
TGI (NCI-H226 lung): 0.16 µM
GI50 (NCI-H23 lung): 16.2 nM
TGI (NCI-H23 lung): 164 nM
GI50 (NCI-H460 lung): < 10 nM
TGI (NCI-H460 lung): > 21.7 µM
GI50 (NCI-H522 lung): 369 nM
TGI (NCI-H522 lung): > 100 µM
GI50 (NCI/ADR-RES ovarian): 28.5 nM
TGI (NCI/ADR-RES ovarian): 3.59 µM
GI50 (OVCAR-3 ovarian): 79.5 nM
TGI (OVCAR-3 ovarian): 804 nM
GI50 (OVCAR-4 ovarian): 2900 nM
TGI (OVCAR-4 ovarian): > 100 µM
GI50 (OVCAR-5 ovarian): 141 nM
TGI (OVCAR-5 ovarian): 8.33 µM
GI50 (OVCAR-8 ovarian): 280 nM
TGI (OVCAR-8 ovarian): > 100 µM
GI50 (PC-3 prostate): 1280 nM
TGI (PC-3 prostate): > 100000 nM
GI50 (RPMI-8226 leukemia): < 10 nM
TGI (RPMI-8226 leukemia): 153 nM
GI50 (RXF 393 renal): > 100000 nM
TGI (RXF 393 renal): > 100 µM
GI50 (SF-268 CNS): < 10 nM
TGI (SF-268 CNS): > 100 µM
GI50 (SF-295 CNS): < 10 nM
TGI (SF-295 CNS): 1210 nM
GI50 (SF-539 CNS): < 19.3 nM
GI50 (SK-MEL-2 melanoma): > 100 µM
TGI (SK-MEL-2 melanoma): > 100 µM
GI50 (SK-MEL-28 melanoma): > 100 µM
TGI (SK-MEL-28 melanoma): > 100 µM
GI50 (SK-MEL-5 melanoma): 18.5 nM
TGI (SK-MEL-5 melanoma): 133 nM
GI50 (SN12C renal): < 10 nM
TGI (SN12C renal): 182 nM
GI50 (SNB-19 CNS): 35.8 nM
TGI (SNB-19 CNS): > 100 µM
GI50 (SNB-75 CNS): 34.5 nM
TGI (SNB-75 CNS): > 100 µM
GI50 (SR leukemia): < 10 nM
TGI (SR leukemia): < 10 nM
GI50 (SW-620 colon): < 10.9 nM
TGI (SW-620 colon): > 100 µM
GI50 (T-47D breast): < 10 nM
TGI (T-47D breast): < 0.01 µM
GI50 (TK-10 renal): 2220 nM
TGI (TK-10 renal): > 100 µM
GI50 (U251 CNS): < 10 nM
TGI (U251 CNS): 1030 nM
GI50 (UACC-257 melanoma): 1200 nM
TGI (UACC-257 melanoma): 26.8 µM
GI50 (UACC-62 melanoma): < 10 nM
TGI (UACC-62 melanoma): 93.7 nM
GI50 (UO-31 renal): < 26.9 nM
TGI (UO-31 renal): > 48.3 µM

CCCCCCCCCCCCCCCCSC(=NCC)NCC
GI50 (786-0 renal): 3.49 µM
TGI (786-0 renal): 20.8 µM
GI50 (A498 renal): 6.66 µM
TGI (A498 renal): 34.3 µM
GI50 (BT-549 breast): 6.16 µM
TGI (BT-549 breast): 46.9 µM
GI50 (CAKI-1 renal): 1390 nM
TGI (CAKI-1 renal): 2780 nM
GI50 (COLO 205 colon): 1810 nM
TGI (COLO 205 colon): 3.47 µM
GI50 (DU-145 prostate): 1620 nM
TGI (DU-145 prostate): 2980 nM
GI50 (HCC-2998 colon): 1850 nM
TGI (HCC-2998 colon): 3280 nM
GI50 (HL-60(TB) leukemia): 1450 nM
TGI (HL-60(TB) leukemia): 3.12 µM
GI50 (HOP-62 NSCLC): 1770 nM
TGI (HOP-62 NSCLC): 3180 nM
GI50 (HS 578T breast): 2800 nM
TGI (HS 578T breast): 8.84 µM
GI50 (LOX IMVI melanoma): 1630 nM
TGI (LOX IMVI melanoma): 3000 nM
GI50 (MDA-MB-231 breast): 1310 nM
TGI (MDA-MB-231 breast): 2.69 µM
GI50 (NCI-H226 lung): 2980 nM
TGI (NCI-H226 lung): 14.6 µM
GI50 (NCI-H23 lung): 2050 nM
TGI (NCI-H23 lung): 4990 nM
GI50 (OVCAR-5 ovarian): 3080 nM
TGI (OVCAR-5 ovarian): 12.5 µM
GI50 (PC-3 prostate): 1370 nM
TGI (PC-3 prostate): 2740 nM
GI50 (RXF 393 renal): 1630 nM
TGI (RXF 393 renal): 3.47 µM
GI50 (SF-295 CNS): 1470 nM
TGI (SF-295 CNS): 2880 nM
GI50 (SK-MEL-2 melanoma): 4.05 µM
TGI (SK-MEL-2 melanoma): 28.4 µM
GI50 (SK-OV-3 ovarian): 3.36 µM
TGI (SK-OV-3 ovarian): 11.6 µM
GI50 (SN12C renal): 1560 nM
TGI (SN12C renal): 2980 nM
GI50 (SNB-19 CNS): 3120 nM
TGI (SNB-19 CNS): 15.8 µM
GI50 (SNB-75 CNS): 2010 nM
TGI (SNB-75 CNS): 12.9 µM
GI50 (T-47D breast): 1480 nM
TGI (T-47D breast): 3.13 µM
GI50 (UACC-257 melanoma): 1870 nM
TGI (UACC-257 melanoma): 3.75 µM
GI50 (UACC-62 melanoma): 1670 nM
TGI (UACC-62 melanoma): 3100 nM
GI50 (UO-31 renal): 1620 nM
TGI (UO-31 renal): 4.09 µM
